The structures appear in SMILES notation.

The subject of one series is Panc-1 tumors. Briefly: Panc-1 orthotopic tumor growth and metastasis in scid mice. It counts as in vivo. As to the method:
(§1) FIGS. 6A-6F show the effect of cromolyn on Panc-1 tumor growth and metastasis in vivo. Panc-1 cells stably expressing the firefly luciferase gene were injected orthotopically into 4-week-old male CB 17 scid mice. […] Mice were divided into four groups of five mice each with an equivalent mean tumor size between groups. […] One group was treated with water (control), one group received gemcitabine bi-weekly (125 mg per kg body weight bi-weekly by intraperitoneal injection), one group was administered cromolyn daily (5 mg per kg body weight daily by intraperitoneal injection), and the final group was given the combination of cromolyn and gemcitabine. All groups were treated for six weeks. Bioluminescent imaging was done weekly to assess tumor growth. […] Means and 95% confidence intervals from two independent experiments are shown (n=20). Two-tailed two-sample (unpaired) Student's t-tests were used to determine P values. The anti-tumorigenic capability of the drug cromolyn was assessed in 4-week-old male CB 17 scid mice (n=20) carrying orthopic tumors of BxPC-3, MPanc96, and Panc-1 cells stably expressing a Lenti-luc reporter. All mouse experiments were reviewed and approved by the Institutional Animal Care and Use Committee of UT MD Anderson Cancer Center. All mice were maintained in a sterile environment. Cages, bedding, food, and water were all autoclaved. All mice were maintained on a daily 12-hour light/12-hour dark cycle, according to the institutional animal welfare guidelines. BxPC-3, MPanc96, and Pane-1 cells carrying the Lenti-luc reporter gene were grown to 80% confluence, harvested by incubation with trypsin-EDTA, washed twice in PBS, and resuspended to a final concentration of 4.0×10^6 cells/mL. Each mouse (n=20 mice per cell line) was injected (into the pancreas) with cell suspensions (50 μL). Bioluminescent imaging to determine tumor volume was performed 1 week after injection because the tumors became established within this amount of time. This initial tumor volume was used to divide the mice into four groups of five mice each, such that the mean tumor size was equal between groups (FIGS. 4A, 5A, and 6A). To allow enough time to observe differences among treatment groups, the mice were followed for the next 5 weeks. One group of mice was then treated biweekly with a sub-maximal concentration of gemcitabine (125 mg per kg body weight by i.p. injection). A second group was treated with a daily injection of cromolyn (5 mg per kg body weight by i.p. injection). A third group was treated with both bi-weekly gemcitabine and daily cromolyn. The control group was treated daily with vehicle. Treatments were continued for 5 weeks, and the effects on the tumor burden and metastasis were analyzed by weekly bioluminescence imaging (FIGS. 4B, 5B, and 6B). At the end of the experiment the mice were anesthetized with 1.5% isofluorane/air mixture and killed by cervical dislocation. Bioluminescence imaging was conducted using a cryogenically cooled IVIS 100 imaging system coupled to a data acquisition computer running Living Image software (Xenogen Corp., Alameda, Calif.). Before imaging, mice were placed in an acrylic chamber, anesthetized with 1.5% isofluorane/air mixture, and injected i.p. with 15 mg/mL of luciferin potassium salt in PBS at a dose of 150 mg per kg body weight. A digital grey scale image of each mouse was acquired, followed by acquisition and overlay of a pseudocolor image representing the spatial distribution of detected photons emerging from active luciferase within the mouse. Tumor volume was quantified as the sum of all detected photons within the region of the tumor per second. At the end of experiment, the mice were killed, and tumors were surgically removed and weighed. After the primary tumors were removed, cancer cell dissemination and metastasis was visualized using IVIS imaging, and metastatic colonies were counted. […]

The test system of another series is MPanc-96 tumors. Briefly: MPanc-96 orthotopic tumor growth and metastasis in scid mice. Format: in vivo. The note with it: MPanc-96 model; for lung metastasis, mean: control 5.9×10^7; for liver metastasis, mean: control 9.4×10^8; for tumor burden, mean: gemcitabine 125 mg/kg bi-weekly i.p., cromolyn 5 mg/kg daily i.p., end of six weeks, control 1.1×10^10. On the procedure:
as §1, with “FIGS. 5A-5F” for “FIGS. 6A-6F”, “on MPanc-96” for “on Panc-1”, “vivo. MPanc-96” for “vivo. Panc-1”

For `Nc1ccn([C@@H]2O[C@H](CO)[C@@H](O)C2(F)F)c(=O)n1` [gemcitabine], in the series on Panc-1 tumors (Panc-1 model), the “body weight, difference versus control” value stood at 4.8 g and the “liver or lung metastasis” value was “neither cromolyn nor gemcitabine nor the combination reduced”. The “body weight at the end of the experiment, mean” value with Panc-1 tumors (Panc-1 model, control 32.0 g) is on record as 27.2 g. In addition, in the series on MPanc-96 tumors, the “liver metastasis, difference versus control” value is on record as 8.1×10^8 photons/sec; the “lung metastasis, difference versus control” value was 5.4×10^7 photons/sec; the “tumor burden, difference versus control” value is 6.9×10^9 photons/sec; the “lung metastasis, mean” value was 5.0×10^6 photons/sec. Moreover, in the series on MPanc-96 tumors, the “liver metastasis, mean” value is recorded as 1.2×10^8 photons/sec and the “tumor burden, mean” value was 4.1×10^9 photons/sec.
In the case of `O=C(O)c1cc(=O)c2c(OCC(O)COc3cccc4oc(C(=O)O)cc(=O)c34)cccc2o1` [cromolyn, disodium 1,3-bis[(2′-carboxylatochromon-5′-yl)oxy]-2-hydroxypropane], the “liver or lung metastasis” value in the series on Panc-1 tumors (Panc-1 model) is “neither cromolyn nor gemcitabine nor the combination reduced”. The tumor development entry with Panc-1 tumors (Panc-1 model (no S100P), cromolyn 5 mg/kg daily i.p.) is “did not reduce”. The “effect on body weight (in words)” value with Panc-1 tumors (Panc-1 model, up to 6 weeks) is reported as “no effect”. Moreover, in the series with MPanc-96 tumors, the “liver metastasis, difference versus control” value is given as 7.2×10^8 photons/sec; the “lung metastasis, difference versus control” value is given as 5.6×10^7 photons/sec; the “tumor burden, difference versus control” value is given as 6.2×10^9 photons/sec; the “lung metastasis, mean” value is 3.2×10^6 photons/sec. In the series with MPanc-96 tumors, the “liver metastasis, mean” value is 2.2×10^8 photons/sec and the “tumor burden, mean” value is given as 4.8×10^9 photons/sec. For the same compound, the “effect on body weight (in words)” value in the series on MPanc-96 tumors (up to 6 weeks) is given as “no effect”.

Source of the values: US20110195924A1, “Methods of Inhibiting the Interaction Between S100P and the Receptor for Advanced Glycation End-Products” (priority 2008, published 2011).
